Tested on: HLA-A*24
Assay: MHC binding assay, UV-ligand exchange with beta2m ELISA (exchange yield), HLA-A*24
Set-up: species or system human
Settings: binding to HLA-A*24, UV-ligand exchange
Source text: Candidate peptides for T cell based therapies according to the present invention were further tested for their MHC binding capacity (affinity). The individual peptide-MHC complexes were produced by UV-ligand exchange, where a UV-sensitive peptide is cleaved upon UV-irradiation, and exchanged with the peptide of interest as analyzed. Only peptide candidates that can effectively bind and stabilize the peptide-receptive MHC molecules prevent dissociation of the MHC complexes. To determine the yield of the exchange reaction, an ELISA was performed based on the detection of the light chain (β2m) of stabilized MHC complexes. The assay was performed as generally described in Rodenko et al. (Rodenko et al., 2006).
96 well MAXISorp plates (NUNC) were coated over night with 2 ug/ml streptavidin in PBS at room temperature, washed 4× and blocked for 1 h at 37° C. in 2% BSA containing blocking buffer. […] Peptide-MHC monomers of the UV-exchange reaction were diluted 100 fold in blocking buffer. Samples were incubated for 1 h at 37° C., washed four times, incubated with 2 ug/ml HRP conjugated anti-β2m for 1h at 37° C., washed again and detected with TMB solution that is stopped with […]. Absorption was measured at 450 nm. Candidate peptides that show a high exchange yield (preferably higher than 50%, most preferred higher than 75%) are generally preferred for a generation and production of antibodies or fragments thereof, and/or T cell receptors or fragments thereof, as they show sufficient avidity to the MHC molecules and prevent dissociation of the MHC complexes.

Peptide exchange (MHC class I binding score, peptide exchange yield)	Substance
+++ (50%-75% = +++)	147 (LYLAFPLAF; listed as Homo sapiens) [compound 147]
+++ (50%-75% = +++)	341 (SYLTQHQRI; listed as Homo sapiens) [compound 341]
+++ (50%-75% = +++)	233 (QYLTAAALHNL; listed as Homo sapiens) [compound 233]
++++ (>=75% = ++++)	264 (LYTETRLQF; listed as Homo sapiens) [compound 264]
+++ (50%-75% = +++)	295 (SYLVIHERI; listed as Homo sapiens) [compound 295]
+++ (50%-75% = +++)	376 (VYTPVASRQSL; listed as Homo sapiens) [compound 376]
+++ (50%-75% = +++)	225 (TYTNTLERL; listed as Homo sapiens) [compound 225]
++ (20%-49% = ++)	198 (DYVGFTLKI; listed as Homo sapiens) [compound 198]
+++ (50%-75% = +++)	343 (NYLGGTSTI; listed as Homo sapiens) [compound 343]
+++ (50%-75% = +++)	273 (IYGEKLQFIF; listed as Homo sapiens) [compound 273]
+++ (50%-75% = +++)	361 (TYADIGGLDNQI; listed as Homo sapiens) [compound 361]
+++ (50%-75% = +++)	192 (RYSTFSEIF; listed as Homo sapiens) [compound 192]
++ (20%-49% = ++)	215 (SYVASFFLL; listed as Homo sapiens) [compound 215]
+++ (50%-75% = +++)	383 (RYKPGEPITF; listed as Homo sapiens) [compound 383]
+++ (50%-75% = +++)	230 (TYGMVMVTF; listed as Homo sapiens) [compound 230]
+++ (50%-75% = +++)	216 (FYVNVKEQF; listed as Homo sapiens) [compound 216]
++++ (>=75% = ++++)	135 (VYEAMVPLF; listed as Homo sapiens) [compound 135]
++++ (>=75% = ++++)	261 (GYIKLINFI; listed as Homo sapiens) [compound 261]
++++ (>=75% = ++++)	210 (IYAGVGEFSF; listed as Homo sapiens) [compound 210]
++++ (>=75% = ++++)	221 (KYIGNLDLL; listed as Homo sapiens) [compound 221]
+++ (50%-75% = +++)	117 (IYLSDLTYI; listed as Homo sapiens) [compound 117]

Peptide exchange (MHC class I binding score, peptide exchange yield)	Substance
++++ (>=75% = ++++)	153 (VYVPFGGKSMITF; listed as Homo sapiens) [compound 153]
+++ (50%-75% = +++)	318 (TYSNSAFQYF; listed as Homo sapiens) [compound 318]
+++ (50%-75% = +++)	317 (VFDTSIAQLF; listed as Homo sapiens) [compound 317]
++++ (>=75% = ++++)	311 (EYLQNLNHI; listed as Homo sapiens) [compound 311]
+++ (50%-75% = +++)	188 (GYKTFFNEF; listed as Homo sapiens) [compound 188]
++++ (>=75% = ++++)	206 (NYLDVATFL; listed as Homo sapiens) [compound 206]
+++ (50%-75% = +++)	310 (IYAPTLLVF; listed as Homo sapiens) [compound 310]
++++ (>=75% = ++++)	248 (AFPTFSVQL; listed as Homo sapiens) [compound 248]
+++ (50%-75% = +++)	191 (TYPDGTYTGRIF; listed as Homo sapiens) [compound 191]
+++ (50%-75% = +++)	316 (VYFEGSDFKF; listed as Homo sapiens) [compound 316]
+++ (50%-75% = +++)	355 (IYVTGGHLF; listed as Homo sapiens) [compound 355]
++++ (>=75% = ++++)	289 (FFHEGQYVF; listed as Homo sapiens) [compound 289]
++++ (>=75% = ++++)	97 (TYTFLKETF; listed as Homo sapiens) [compound 97]
+++ (50%-75% = +++)	294 (RFPVQGTVTF; listed as Homo sapiens) [compound 294]
++ (20%-49% = ++)	259 (YFIKSPPSQLF; listed as Homo sapiens) [compound 259]
+++ (50%-75% = +++)	256 (VFGKSAYLF; listed as Homo sapiens) [compound 256]
+++ (50%-75% = +++)	243 (SYLELANTL; listed as Homo sapiens) [compound 243]
++++ (>=75% = ++++)	272 (RYVFPLPYL; listed as Homo sapiens) [compound 272]
++ (20%-49% = ++)	123 (VYTPVLEHL; listed as Homo sapiens) [compound 123]
+++ (50%-75% = +++)	370 (RFIGIPNQF; listed as Homo sapiens) [compound 370]
++++ (>=75% = ++++)	301 (KFDDVTMLF; listed as Homo sapiens) [compound 301]

Peptide exchange (MHC class I binding score, peptide exchange yield)	Substance
+++ (50%-75% = +++)	193 (LYLENNAQTQF; listed as Homo sapiens) [compound 193]
+++ (50%-75% = +++)	388 (IYGEKTYAF; listed as Homo sapiens) [compound 388]
+++ (50%-75% = +++)	133 (KYLEDMKTYF; listed as Homo sapiens) [compound 133]
+++ (50%-75% = +++)	131 (EYLDRIGQLFF; listed as Homo sapiens) [compound 131]
++++ (>=75% = ++++)	275 (KYGTLDVTF; listed as Homo sapiens) [compound 275]
+++ (50%-75% = +++)	178 (NYSSAVQKF; listed as Homo sapiens) [compound 178]
+++ (50%-75% = +++)	232 (YYLSDSPLL; listed as Homo sapiens) [compound 232]
+++ (50%-75% = +++)	200 (VFIHHLPQF; listed as Homo sapiens) [compound 200]
+++ (50%-75% = +++)	159 (IYEETRGVL; listed as Homo sapiens) [compound 159]
++ (20%-49% = ++)	268 (IFITKALQI; listed as Homo sapiens) [compound 268]
++++ (>=75% = ++++)	357 (QFITSTNTF; listed as Homo sapiens) [compound 357]
+++ (50%-75% = +++)	368 (KYQNVKHNL; listed as Homo sapiens) [compound 368]
++++ (>=75% = ++++)	280 (TYNPNLQDKL; listed as Homo sapiens) [compound 280]
++++ (>=75% = ++++)	154 (VYGVPTPHF; listed as Homo sapiens) [compound 154]
+++ (50%-75% = +++)	121 (RYGLPAAWSTF; listed as Homo sapiens) [compound 121]
++++ (>=75% = ++++)	276 (QYLDVLHAL; listed as Homo sapiens) [compound 276]
++++ (>=75% = ++++)	173 (QYLEKYYNL; listed as Homo sapiens) [compound 173]
+++ (50%-75% = +++)	224 (PYFFANQEF; listed as Homo sapiens) [compound 224]
+++ (50%-75% = +++)	306 (VYPAEQPQI; listed as Homo sapiens) [compound 306]
+++ (50%-75% = +++)	312 (SYTSVLSRL; listed as Homo sapiens) [compound 312]

From US10130693B2, “Peptides, combination of peptides and scaffolds for use in immunotherapeutic treatment of various cancers” (Immatics Biotechnologies GmbH, priority 2015, dated 2018)
